Measured values taken from article PMC5831360 (Nature chemical biology, 2017).
“And” between values parts separate entries of the source, which are not always exact repeats. Identical values can stand only once. Blank lines part the entries; values can stand above or below the compound they belong to.

Tests used:
SPIN1 (SPIN1_50–262) = SPIN1 (SPIN1_50–262) (Homo sapiens, UniProt Q9Y657); assay: Isothermal titration calorimetry; format: binding; details: read-out: dissociation constant (Kd) with SPIN1; ITC, 25 °C, pH 7.5
GFP-SPIN1(FL) = GFP-SPIN1(FL) (Homo sapiens, UniProt Q9Y657); format: binding; details: HEK293 whole cell lysate, bead-immobilized biotinylated compound
[1] = target: GFP-SPIN1 in transfected HeLa cells (Homo sapiens, UniProt Q9Y657); assay: Cellular thermal shift assay; format: cell-based; details: 20 μM, overnight
[2] = target: yeast Tudor domain (SPF30^sp) (Schizosaccharomyces pombe, UniProt O94519); assay: Protein domain microarray probing with biotin-tagged compounds; format: binding; details: biotinylated compound, 1 μM, Cy3-streptavidin
[3] = tested on: SPIN1 target genes (rRNA, IL1B, BST2, C1QTNF1, ALDH1A3, IFI44L) in T778 cells; assay: RT-qPCR of SPIN1-regulated genes after compound treatment; format: cell-based, human; details: 4 days
subset of MBT domains = assay: Protein domain microarray probing with biotin-tagged compounds; format: binding, human; details: biotinylated compound, 1 μM, Cy3-streptavidin
recombinant SPIN1 = recombinant SPIN1 (Homo sapiens, UniProt Q9Y657); assay: In vitro thermal shift assay; format: binding; details: 100 μM compound, 1 mg/mL SPIN1, Sypro Orange
[4] = target: SPIN1-H3K4me3 interaction (Homo sapiens, UniProt Q9Y657); assay: Competition pulldown, bead-bound H3K4me3 peptide and GST-SPIN1; format: binding; details: untagged compound, increasing concentrations
[5] = target: Spindlin1 (SPIN1), three Tudor domains (Homo sapiens, UniProt Q9Y657); assay: Protein domain microarray probing with biotin-tagged compounds; format: binding; details: biotinylated compound, 1 μM, Cy3-streptavidin
Tudor domains of PHF20 [6] = target: Tudor domains of PHF20 (Homo sapiens, UniProt Q9BVI0); assay: as above; format: binding; details: biotinylated compound, 1 μM, Cy3-streptavidin
Target sequence in this assay (Q9BVI0 4-147): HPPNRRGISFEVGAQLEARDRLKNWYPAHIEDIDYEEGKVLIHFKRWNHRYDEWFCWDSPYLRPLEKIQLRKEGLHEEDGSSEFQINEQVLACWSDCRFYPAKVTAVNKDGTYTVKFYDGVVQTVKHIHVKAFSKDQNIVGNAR

PHF20L1 = assay: as above; format: binding, human; details: biotinylated compound, 1 μM, Cy3-streptavidin
SPIN1-TCF4 interaction = SPIN1-TCF4 interaction (Homo sapiens, UniProt Q9Y657); assay: SPIN1-TCF4 interaction assay; format: binding
Tudor domains of 53BP1 [7] = target: T1, Tudor domains of 53BP1 (Homo sapiens, UniProt Q12888); assay: Protein domain microarray probing with biotin-tagged compounds; format: binding; details: biotinylated compound, 1 μM, Cy3-streptavidin
[8] = tested on: SPIN1 target genes in GFP-SPIN1 transfected T778 cells; assay: RT-qPCR of SPIN1 target genes after GFP-SPIN1 overexpression; format: cell-based, human; details: 10 μM, 24 h after GFP-SPIN1 transfection
SPIN2a/b = assay: Chemiprecipitation of SPIN family members with tagged compound; format: binding
T778 liposarcoma cells = assay: RNA-seq of compound-treated versus SPIN1 knockdown cells; format: cell-based, human; details: 10 μM, 3 days
[9] = tested on: GFP-SPIN1 recruitment to promoter regions of rDNA and IL1B in T778 cells; assay: α-GFP ChIP-qPCR of SPIN1 chromatin association; format: cell-based, human; details: 10 μM, overnight
Tudor domains of PHF20 [10] = target: Tudor domains of PHF20 (Homo sapiens, UniProt Q9BVI0); assay: Isothermal titration calorimetry; format: binding; details: Kd for PHF20, ITC counter screen
Target sequence in this assay (Q9BVI0 83-147 limits assumed): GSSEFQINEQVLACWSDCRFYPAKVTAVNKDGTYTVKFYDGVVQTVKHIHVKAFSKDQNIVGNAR

Tudor domains of 53BP1 [11] = target: T1, Tudor domains of 53BP1; assay: Isothermal titration calorimetry; format: binding; details: Kd for 53BP1, ITC counter screen
SPIN4 = SPIN4 (Homo sapiens, UniProt Q56A73); assay: Chemiprecipitation of SPIN family members with tagged compound; format: binding
MBT domains of L3MBTL1 = MBT domains of L3MBTL1 (Homo sapiens, UniProt Q9Y468); assay: Isothermal titration calorimetry; format: binding; details: Kd for L3MBTL1, ITC counter screen
MBT domains of L3MBTL3 = MBT domains of L3MBTL3 (Homo sapiens, UniProt Q96JM7); assay: Isothermal titration calorimetry; format: binding; details: Kd for L3MBTL3, ITC counter screen
[12] = tested on: Spindlin1-H3K4me3 interaction; details: read-out: IC50, in vitro inhibition of Spindlin1-H3K4me3 interaction; AlphaLISA; cited from earlier work
SPIN1 = details: cited from earlier work
GFP-53BP1 = GFP-53BP1 (Homo sapiens, UniProt Q12888); format: binding; details: HEK293T whole cell lysate, bead-immobilized biotinylated compound
GFP-53BP1, sequence (Q12888 1144-1709): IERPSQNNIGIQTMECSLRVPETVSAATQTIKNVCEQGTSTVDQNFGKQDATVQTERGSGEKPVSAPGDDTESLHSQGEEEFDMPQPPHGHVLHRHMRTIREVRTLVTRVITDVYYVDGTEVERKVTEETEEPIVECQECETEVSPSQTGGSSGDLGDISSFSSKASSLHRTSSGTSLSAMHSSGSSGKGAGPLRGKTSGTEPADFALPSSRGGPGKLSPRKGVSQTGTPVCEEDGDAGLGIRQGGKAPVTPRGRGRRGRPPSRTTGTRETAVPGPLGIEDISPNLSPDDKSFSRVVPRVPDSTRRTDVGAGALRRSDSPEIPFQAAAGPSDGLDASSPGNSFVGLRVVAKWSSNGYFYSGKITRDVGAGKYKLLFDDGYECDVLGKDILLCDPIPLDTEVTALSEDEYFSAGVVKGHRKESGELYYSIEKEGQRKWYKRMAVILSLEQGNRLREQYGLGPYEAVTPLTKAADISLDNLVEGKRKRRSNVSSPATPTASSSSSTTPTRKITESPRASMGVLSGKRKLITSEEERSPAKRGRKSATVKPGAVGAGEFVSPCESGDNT

T1 sequence (Q12888 1484-1603 limits assumed): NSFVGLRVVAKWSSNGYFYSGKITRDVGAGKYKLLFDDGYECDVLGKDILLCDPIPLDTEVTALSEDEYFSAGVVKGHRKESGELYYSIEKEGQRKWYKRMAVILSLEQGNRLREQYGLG
SPIN1-H3K4me3 interaction, sequence (Q9Y657 50-262): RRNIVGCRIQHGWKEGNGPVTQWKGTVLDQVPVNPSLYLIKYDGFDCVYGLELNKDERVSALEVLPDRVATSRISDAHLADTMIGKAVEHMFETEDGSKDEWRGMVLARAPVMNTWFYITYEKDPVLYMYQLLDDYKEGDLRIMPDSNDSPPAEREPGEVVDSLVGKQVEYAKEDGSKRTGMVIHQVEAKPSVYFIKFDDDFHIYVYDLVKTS
MBT domains of L3MBTL3, sequence (Q96JM7 232-543 limits assumed): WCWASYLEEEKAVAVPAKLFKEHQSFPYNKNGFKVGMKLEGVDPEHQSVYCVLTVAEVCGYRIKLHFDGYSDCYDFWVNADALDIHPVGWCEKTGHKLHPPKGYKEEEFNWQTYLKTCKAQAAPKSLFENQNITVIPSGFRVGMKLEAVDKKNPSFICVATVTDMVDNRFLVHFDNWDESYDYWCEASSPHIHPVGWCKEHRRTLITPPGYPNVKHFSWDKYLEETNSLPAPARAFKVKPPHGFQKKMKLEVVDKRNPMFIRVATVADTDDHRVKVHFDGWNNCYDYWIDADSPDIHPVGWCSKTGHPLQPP
MBT domains of L3MBTL1, sequence (Q9Y468 274-585 limits assumed): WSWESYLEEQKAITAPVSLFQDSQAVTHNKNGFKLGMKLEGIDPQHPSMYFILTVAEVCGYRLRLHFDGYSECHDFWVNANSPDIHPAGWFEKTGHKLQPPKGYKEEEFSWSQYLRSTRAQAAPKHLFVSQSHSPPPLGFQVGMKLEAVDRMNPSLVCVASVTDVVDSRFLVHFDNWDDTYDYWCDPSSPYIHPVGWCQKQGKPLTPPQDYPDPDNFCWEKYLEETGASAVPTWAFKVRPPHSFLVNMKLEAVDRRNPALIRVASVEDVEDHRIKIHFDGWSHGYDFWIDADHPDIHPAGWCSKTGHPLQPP
GFP-SPIN1 in transfected HeLa cells, sequence (Q9Y657 whole entry, the tested form may be a part): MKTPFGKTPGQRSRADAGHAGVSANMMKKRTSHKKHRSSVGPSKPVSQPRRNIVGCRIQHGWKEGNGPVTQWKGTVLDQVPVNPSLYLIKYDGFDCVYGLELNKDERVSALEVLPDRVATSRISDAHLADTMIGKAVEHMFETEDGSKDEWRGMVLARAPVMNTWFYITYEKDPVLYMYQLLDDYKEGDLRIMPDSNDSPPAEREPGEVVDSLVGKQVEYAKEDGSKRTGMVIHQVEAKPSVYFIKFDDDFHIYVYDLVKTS
yeast Tudor domain (SPF30^sp), sequence (O94519 76-139 limits assumed): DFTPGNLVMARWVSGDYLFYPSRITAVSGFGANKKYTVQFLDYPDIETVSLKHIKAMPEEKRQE
SPIN4, sequence (Q56A73 whole entry, the tested form may be a part): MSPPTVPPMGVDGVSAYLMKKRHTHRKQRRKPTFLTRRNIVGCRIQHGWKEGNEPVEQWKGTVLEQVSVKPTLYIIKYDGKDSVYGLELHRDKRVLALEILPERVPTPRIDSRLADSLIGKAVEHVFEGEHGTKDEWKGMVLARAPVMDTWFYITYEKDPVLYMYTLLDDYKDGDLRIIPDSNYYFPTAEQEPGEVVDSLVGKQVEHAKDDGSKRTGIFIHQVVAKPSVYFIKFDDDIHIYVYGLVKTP
recombinant SPIN1, sequence (Q9Y657 50-262): as the sequence (Q9Y657 50-262) above
SPIN1 (SPIN1_50–262), sequence (Q9Y657 50-262): as above
Spindlin1 (SPIN1), three Tudor domains, sequence (Q9Y657 whole entry, the tested form may be a part): as the sequence (Q9Y657 whole entry, the tested form may be a part) above
GFP-SPIN1(FL), sequence (Q9Y657 whole entry): as the sequence (Q9Y657 whole entry, the tested form may be a part) above
SPIN1-TCF4 interaction, sequence (Q9Y657 whole entry, the tested form may be a part): as above

Kd (SPIN1 (SPIN1_50–262)): 15 µM | pulldown of GFP-SPIN1 by tagged compound (GFP-SPIN1(FL)): detected the pulldown of GFP-SPIN1 | stabilization of GFP-SPIN1 at high temperatures (CETSA) [1]: stabilization | binding to yeast Tudor domain SPF30^sp on protein domain microarray [2]: bound strongly | binding to a subset of MBT domains on protein domain microarray (subset of MBT domains): bound strongly | increase of melting temperature of SPIN1 (recombinant SPIN1): 5 °C | binding to Spindlin1 on protein domain microarray [5]: bound strongly | binding to Tudor domains of PHF20 on protein domain microarray (Tudor domains of PHF20 [6]): bound strongly | binding to PHF20L1 on protein domain microarray (PHF20L1): bound strongly | block of SPIN1-TCF4 interaction (SPIN1-TCF4 interaction): blocked this interaction | binding to Tudor domains of 53BP1 on protein domain microarray (Tudor domains of 53BP1 [7]): bound strongly
Structure (SMILES): O=C(c1ccc(C(=O)N2CCC(CCN3CCCC3)CC2)c(Nc2ccccc2)c1)N1CCC(CCN2CCCC2)CC1 [EML405]
expression levels of six SPIN1-regulated candidate genes ([3]; 20 μM): decrease in the expression levels of all six candidate genes | inhibition of H3K4me3 peptide - GST-SPIN1 interaction [4]: higher concentrations of EML405 than EML631–633 were needed to inhibit the interaction | SPIN1-overexpression-elevated expression of target genes [8]: dramatically attenuated

Structure (SMILES): O=C(c1ccc(C(=O)N2CCC(CCN3CCCC3)CC2)c(Nc2ccc(OCN3CCCC3)cc2)c1)N1CCC(CCN2CCCC2)CC1 [EML631]
pulldown of SPIN2a/b by tagged compound (SPIN2a/b): reduced pulldown | transcripts down regulated in both SPIN1 knockdown and compound-treated cells (T778 liposarcoma cells): 655 | expression levels of six SPIN1-regulated candidate genes ([3]; 10 μM): decrease in the expression levels of all six candidate genes | GFP-SPIN1 recruitment to promoter regions of rDNA and IL1B [9]: recruitment was blocked | Kd (Tudor domains of PHF20 [10]): < 100 µM and > 100 µM | Kd (Tudor domains of 53BP1 [11]): < 100 µM and > 100 µM | interaction of tagged compound with SPIN4 (SPIN4): no interaction | Kd (MBT domains of L3MBTL1): < 100 µM and > 100 µM | SPIN1-overexpression-elevated expression of target genes [8]: dramatically attenuated | Kd (MBT domains of L3MBTL3): < 100 µM and > 100 µM

Structure (SMILES): COc1cc2c(cc1OCCCN1CCCC1)N=C(N)C21CCC1 [A366]
IC50 [12]: ~0.2 µM | cell-based activity (SPIN1): 100 µM

stabilization of GFP-SPIN1 at high temperatures (CETSA) [1]: not with UNC1215 | interaction of tagged compound with GFP-53BP1 (GFP-53BP1): able to interact with GFP-53BP1 | inhibition of H3K4me3 peptide - GST-SPIN1 interaction [4]: not active
Structure (SMILES): O=C(c1ccc(C(=O)N2CCC(N3CCCC3)CC2)c(Nc2ccccc2)c1)N1CCC(N2CCCC2)CC1 [UNC1215, reference compound]
